Laboratory results as given in US20080015255A1, “Pharmaceutical Compositions Based on Fluorinated Sulphamides and Sulphinimides” (CENTRE NATIONAL DE LA RECHERCHE SCIENTIFIQUE(C.N.R.S.), priority 2004, published 2008).

Target: bovine carbonic anhydrase (Bos taurus, UniProt P00921)
Assay: Inhibition of bovine carbonic anhydrase esterase activity (hydrolysis of p-nitrophenyl acetate, UV 348 nm)
Details: for inhibition with respect to carboanhydrase, in words: comparable with or even superior to that of acetazolamide; for % inhibition of the hydrolysis of nitrophenyl acetate (NPA) catalyzed by carbonic anhydrase: 25° C.

Chain of bovine carbonic anhydrase (P00921 whole entry): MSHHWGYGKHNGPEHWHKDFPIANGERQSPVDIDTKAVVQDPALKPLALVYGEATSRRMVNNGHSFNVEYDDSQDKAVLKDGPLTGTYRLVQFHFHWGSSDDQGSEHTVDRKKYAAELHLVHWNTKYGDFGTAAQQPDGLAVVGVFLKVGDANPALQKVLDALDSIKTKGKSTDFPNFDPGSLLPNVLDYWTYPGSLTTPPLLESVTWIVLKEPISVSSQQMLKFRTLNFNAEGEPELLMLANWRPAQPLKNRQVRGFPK

Row | SMILES | % inhibition of the hydrolysis of nitrophenyl acetate (NPA) catalyzed by carbonic anhydrase (inhibitor 1.35 10^−6 mol/l) [%] | % inhibition of the hydrolysis of nitrophenyl acetate (NPA) catalyzed by carbonic anhydrase (inhibitor 1.35 10^−4 mol/l) [%] | inhibition with respect to carboanhydrase, in words | % inhibition of the hydrolysis of nitrophenyl acetate (NPA) catalyzed by carbonic anhydrase (inhibitor 1.35 10^−7 mol/l) [%] | % inhibition of the hydrolysis of nitrophenyl acetate (NPA) catalyzed by carbonic anhydrase (inhibitor 1.35 10^−8 mol/l) [%]
1 | NS(=O)(=O)C(F)(F)C(F)(F)C(F)(F)C(F)(F)S(N)(=O)=O [(C2F4SO2NH2)2, perfluorobutane-1,4-disulfamide] | 78 | – | very considerable inhibition | 6 | 1
2 | O=S(=O)(NS(=O)(=O)C(F)(F)C(F)(F)C(F)(F)C(F)(F)F)C(F)(F)C(F)(F)C(F)(F)C(F)(F)F [(C4F9SO2)2NH] | 0 | 65 | – | – | –
3 | O=S(=O)(NS(=O)(=O)C(F)(F)C(F)(F)C(F)(F)C(F)(F)C(F)(F)C(F)(F)C(F)(F)C(F)(F)F)C(F)(F)C(F)(F)C(F)(F)C(F)(F)F [(C4F9SO2)NH(C8F17SO2)] | 0 | 97 | – | – | –
4 | O=S(=O)(NS(=O)(=O)C(F)(F)C(F)(F)C(F)(F)C(F)(F)C(F)(F)C(F)(F)F)C(F)(F)C(F)(F)C(F)(F)C(F)(F)C(F)(F)C(F)(F)F [(C6F13SO2)2NH, bis(1,1,2,2,3,3,4,4,5,5,6,6,6)tridecafluoro-n-hexylsulfinimide] | 0 | 85 | – | – | –
5 | [Li+].[NH-]S(=O)(=O)C(F)(F)C(F)(F)C(F)(F)C(F)(F)C(F)(F)C(F)(F)C(F)(F)C(F)(F)F [C8F17SO2NH^−+Li] | 85 | – | – | 3 | –
6 | [NH-]S(=O)(=O)C(F)(F)C(F)(F)C(F)(F)C(F)(F)C(F)(F)C(F)(F)C(F)(F)C(F)(F)F.[Na+] [C8F17SO2NH^−+Na, sodium 1,1,2,2,3,3,4,4,5,5,6,6,7,7,8,8,8-heptadecafluoro-n-octylsulfamide anion] | 94 | – | very considerable inhibition | 40 | 17
7 | NS(=O)(=O)C(F)(F)C(F)(F)C(F)(F)C(F)(F)C(F)(F)C(F)(F)C(F)(F)C(F)(F)F [Example C8F17SO2NH2, 1,1,2,2,3,3,4,4,5,5,6,6,7,7,8,8,8-heptadecafluoro-octanesulfamide] | 88 | – | very considerable inhibition | 7 | 5

Continued, in another order:

Row | % inhibition of the hydrolysis of nitrophenyl acetate (NPA) catalyzed by carbonic anhydrase (inhibitor 1.35 10^−6 mol/l) [%] | % inhibition of the hydrolysis of nitrophenyl acetate (NPA) catalyzed by carbonic anhydrase (inhibitor 1.35 10^−4 mol/l) [%] | SMILES | inhibition with respect to carboanhydrase, in words | % inhibition of the hydrolysis of nitrophenyl acetate (NPA) catalyzed by carbonic anhydrase (inhibitor 1.35 10^−7 mol/l) [%] | % inhibition of the hydrolysis of nitrophenyl acetate (NPA) catalyzed by carbonic anhydrase (inhibitor 1.35 10^−8 mol/l) [%]
8 | 0 | 87 | O=S(=O)(NS(=O)(=O)C(F)(F)C(F)(F)C(F)(F)C(F)(F)C(F)(F)C(F)(F)F)C(F)(F)C(F)(F)C(F)(F)C(F)(F)F [(C6F13SO2)NH(C4F9SO2)] | – | – | –
9 | 0 | 89 | O=S(=O)(NS(=O)(=O)C(F)(F)C(F)(F)C(F)(F)C(F)(F)C(F)(F)C(F)(F)C(F)(F)C(F)(F)F)C(F)(F)C(F)(F)C(F)(F)C(F)(F)C(F)(F)C(F)(F)C(F)(F)C(F)(F)F [(C8F17SO2)2NH] | – | – | –
10 | 0 | 87 | O=S(=O)(NS(=O)(=O)C(F)(F)C(F)(F)C(F)(F)C(F)(F)C(F)(F)C(F)(F)C(F)(F)C(F)(F)F)C(F)(F)C(F)(F)C(F)(F)C(F)(F)C(F)(F)C(F)(F)F [(C8F17SO2)NH(C6F13SO2)] | – | – | –
11 | 36 | – | NS(=O)(=O)CCC(F)(F)C(F)(F)C(F)(F)C(F)(F)C(F)(F)C(F)(F)C(F)(F)C(F)(F)F [C8F17(CH2)2SO2NH2] | – | – | –
12 | 0 | 73 | CCCCCCS(N)(=O)=O [Example C6H13SO2NH2, n-hexanesulfamide, reference compound] | – | – | –
13 | 80 | – | NS(=O)(=O)C(F)(F)C(F)(F)C(F)(F)C(F)(F)C(F)(F)C(F)(F)C(F)(F)F [Example C7F15SO2NH2] | – | 0 | –
14 | 5 | 86 | CCCCCCCCS(N)(=O)=O [Example C8H17SO2NH2, n-octanesulfamide, reference compound] | – | – | –
